Consider 32 molecules from the CombiSolv-Exp solvation set (Vermeire and Green 2021).

The data set can be described thus: solvent given as SMILES.
Where [1] appears, read: in CCCCCCCCC=CCCCCCCCC(=O)OCC(COC(=O)CCCCCCCC=CCCCCCCCC)OC(=O)CCCCCCCC=CCCCCCCCC

Consider `COC(=O)C1CC1`, for which, where the note is “in O”, the “solvation free energy, 298 K” value was -4.1 kcal/mol.
On to `C1CC1`, for which the “solvation free energy, 298 K” value by setting is: (in C1COCCO1) -1.94 kcal/mol; (in CC(C)O) -1.58 kcal/mol; (in CCCCCC) -1.98 kcal/mol; (in CCCCO) -1.72 kcal/mol; (in CCCO) -1.57 kcal/mol; (in O) 0.75 kcal/mol.
In the case of `CC(=O)OC(C)(C)C1CC=C(C)CC1` (centres undefined), the “solvation free energy, 298 K” value (in O) is -3.41 kcal/mol.
Still for that read-out and setting: the result for `Nc1cnn(-c2ccccc2)c(=O)c1Cl` reads -16.4 kcal/mol.
As for `CC(=O)N(C)C`, the “solvation free energy, 298 K” value is, setting by setting: (in C1CCCCC1) -4.97 kcal/mol; (in C=CCCCCCCC=C) -5.22 kcal/mol; (in CC(C)CC(C)(C)C) -5.19 kcal/mol; (in CCCCCCCCCCCCCCCC) -4.26 kcal/mol; (in O) -8.15 kcal/mol; (in [2H]O[2H]) -7.78 kcal/mol. Further, the “solvation free energy, 298 K” value (in c1ccccc1) was -6.41 kcal/mol.
Consider `CNC1CCCCC1`, for which the “solvation free energy, 298 K” value (in C1CCCCC1) was -6.05 kcal/mol.
For the molecule `COc1cccc(C=O)c1O`, under “in O”, the “solvation free energy, 298 K” value was -6.89 kcal/mol.
For `c1ccc2c(c1)OCCOCCOCCOCCO2`, the “solvation free energy, 298 K” value (in Cc1cccc(C)c1) was -14.8 kcal/mol and the “solvation free energy, 298 K” value (in O) is -14.4 kcal/mol.
Consider `O=[N+]([O-])c1ccc(Cl)c(Cl)c1`, for which the “solvation free energy, 298 K” value is -8.7 kcal/mol (in C1CCCCC1); -8.04 kcal/mol (in CC(C)O); -7.78 kcal/mol (in CCCCCC); -7.65 kcal/mol (in CCCCCCC); -7.34 kcal/mol under setting [1]; -8.08 kcal/mol (in CCCCO). Moreover, the “solvation free energy, 298 K” value is -8.26 kcal/mol (in CCCO); -8.24 kcal/mol (in CCO); -9.16 kcal/mol (in CCOC(C)=O); -8.41 kcal/mol (in CO); -9.07 kcal/mol (in ClC(Cl)(Cl)Cl).
Consider `CC(C)OC=O`, for which the “solvation free energy, 298 K” value (in O) was -2.02 kcal/mol.
Consider `O=C(CC(=O)C(F)(F)F)c1cccs1`, for which, where the note is “in O”, the “solvation free energy, 298 K” value was -6.15 kcal/mol.
In the case of `ClCC(Cl)Cl`, the “solvation free energy, 298 K” value is -4.63 kcal/mol (in CCCCCCCCO); -5.06 kcal/mol (in ClC(Cl)(Cl)Cl); -5.28 kcal/mol (in ClC(Cl)Cl); -5.47 kcal/mol (in ClCCCl); -1.99 kcal/mol (in O).
Consider `CCCCCCNCc1ccc(C)cc1`, for which the “solvation free energy, 298 K” value (in O) is -4.97 kcal/mol.
On to `CC=CC=O`, for which the “solvation free energy, 298 K” value (in O=CN1CCOCC1) is -4.69 kcal/mol.
As for `N#Cc1cccnc1`, the “solvation free energy, 298 K” value (in O) is -6.75 kcal/mol.
With `CC(=O)OCC=C(C)CCC=C(C)CCC=C(C)C`, the “solvation free energy, 298 K” value (in O) is -3.96 kcal/mol.
For the molecule `CCOC(=O)c1ccccc1O`, the “solvation free energy, 298 K” value (in O) was -3.82 kcal/mol.
Regarding `C=C1CCC2(C(C)C)CC12` (centres undefined), under “in O”, the “solvation free energy, 298 K” value came to 0.49 kcal/mol.
Regarding `CCC(=O)OC`, the “solvation free energy, 298 K” value is, setting by setting: (in C1CCOC1) -4.45 kcal/mol; (in CCCCCC) -3.65 kcal/mol; (in CCCCCCC) -3.63 kcal/mol; (in CCCCCCCC) -3.57 kcal/mol; (in CCCCCCCCCC) -3.49 kcal/mol; (in CCCO) -3.89 kcal/mol. Also, the “solvation free energy, 298 K” value by setting is: (in CCO) -4.15 kcal/mol; (in CO) -4.32 kcal/mol; (in O) -2.93 kcal/mol.
Consider `C#CCCCCC`, for which the “solvation free energy, 298 K” value is, setting by setting: (in C1CCC2CCCCC2C1) -4.37 kcal/mol; (in C1CCC(C2CCCCC2)CC1) -4.33 kcal/mol; (in CN(C)C=O) -4.37 kcal/mol; (in CS(C)=O) -3.95 kcal/mol; (in N#CCCCCC#N) -3.83 kcal/mol; (in NCCO) -2.8 kcal/mol. The “solvation free energy, 298 K” value is, setting by setting: (in O) 0.59 kcal/mol; (in O=Cc1ccco1) -4.12 kcal/mol; (in OCc1ccco1) -3.93 kcal/mol; (in c1ccc2c(c1)CCCC2) -4.66 kcal/mol; (in c1ccc(C2CCCCC2)cc1) -4.56 kcal/mol.
On to `CC1=CC=C(C(C)C)CC1`, for which, where the note is “in O”, the “solvation free energy, 298 K” value was 0.12 kcal/mol.
For `ClC1=C(Cl)C2(Cl)C3C4OC4C(Cl)C3C1(Cl)C2(Cl)Cl` (centres undefined), the “solvation free energy, 298 K” value reads like this: under setting [1], -13 kcal/mol; (in CCCCCCCCO) -11.7 kcal/mol.
For the molecule `CCC(C)(O)C(C)C` (centres undefined), the “solvation free energy, 298 K” value is -5.4 kcal/mol (in CCCCCCCC) and -5.34 kcal/mol (in CCCCCCCCCC).
Regarding `CC(C)Br`, the “solvation free energy, 298 K” value was -3.29 kcal/mol (in C=CCCCCCCCCCCCCCC) and -0.48 kcal/mol (in O).
Turning to `Cc1ccccc1C=O`, the “solvation free energy, 298 K” value (in O) was -3.93 kcal/mol.
Consider `CCCOC=O`, for which the “solvation free energy, 298 K” value runs as follows: (in CCCCCCCCCCCCCCCC) -3.29 kcal/mol; (in CCCCCCCCO) -3.64 kcal/mol; (in O) -2.51 kcal/mol; (in [2H]O[2H]) -2.55 kcal/mol.
Take `COc1ccc(C(c2ccc(OC)cc2)C(Cl)(Cl)Cl)cc1`: where the note is “in O”, the “solvation free energy, 298 K” value is -6.93 kcal/mol.
`CC(C)CCCO`: the “solvation free energy, 298 K” value by setting is: (in CCCCCCCC) -4.84 kcal/mol; (in CCCCCCCCCC) -4.78 kcal/mol.
Consider `CC(=O)CC(=O)C(F)(F)F`, for which the “solvation free energy, 298 K” value (in O) was -4.91 kcal/mol.
Turning to `CC1=CC2C(=CC1)C(C)CCC2C(C)C` (centres undefined), under “in O”, the “solvation free energy, 298 K” value is -0.26 kcal/mol.
`Oc1ccccc1`: the “solvation free energy, 298 K” value is, setting by setting: (in CC(C)CC(C)(C)C) -5.23 kcal/mol; (in CCCCCCC) -4.97 kcal/mol; (in CCCCCCCCCC) -5.49 kcal/mol; (in Cc1ccc(C)cc1) -6.77 kcal/mol; (in Cc1cccc(C)c1) -6.78 kcal/mol; (in Cc1ccccc1C) -6.84 kcal/mol. Besides, the “solvation free energy, 298 K” value (in O) is -6.62 kcal/mol.
`c1ccc(Oc2ccccc2)cc1`: the “solvation free energy, 298 K” value (in O) is -2.87 kcal/mol.
